Biological target: T1, MLLT1 (Homo sapiens, UniProt Q03111)
T1 construct: host or cells: MV4-11
T1 sequence (Q03111 1-559): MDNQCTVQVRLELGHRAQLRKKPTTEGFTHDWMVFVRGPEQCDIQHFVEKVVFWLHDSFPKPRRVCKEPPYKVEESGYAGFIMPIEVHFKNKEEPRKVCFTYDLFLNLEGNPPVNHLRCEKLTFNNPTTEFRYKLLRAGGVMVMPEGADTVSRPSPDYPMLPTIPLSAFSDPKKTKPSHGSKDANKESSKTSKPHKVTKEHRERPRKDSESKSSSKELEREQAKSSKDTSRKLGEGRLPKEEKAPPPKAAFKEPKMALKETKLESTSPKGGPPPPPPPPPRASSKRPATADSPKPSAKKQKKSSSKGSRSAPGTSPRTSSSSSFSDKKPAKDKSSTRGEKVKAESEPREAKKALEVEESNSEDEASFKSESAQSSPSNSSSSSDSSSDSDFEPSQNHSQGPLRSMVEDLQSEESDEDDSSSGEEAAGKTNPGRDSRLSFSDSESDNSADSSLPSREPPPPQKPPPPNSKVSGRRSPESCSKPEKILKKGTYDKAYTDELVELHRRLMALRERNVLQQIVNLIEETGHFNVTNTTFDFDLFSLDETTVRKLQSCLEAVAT
Assay: MLLT1 degradation assay in MV4-11 cells (JESS chemiluminescent detection), three concentrations, 24 h
Type: cell-based
Settings: with respect to DMSO control
Procedure, shortened: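 MV4-11 cells treated 24 h at 37° C, 5% CO2 with 1000, 100 and 10 nM compound (0.1% DMSO final). MLLT1 quantified by automated capillary chemiluminescent immunodetection; band peak area expressed as % degradation relative to DMSO control.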

MLLT1% Degradation @ 0.1 μM | MLLT1% Degradation @ 1 μM | SMILES | MLLT1% Degradation @ 0.01 μM
A (Category A: A ≥ 75% degradation) | A (Category A: A ≥ 75% degradation) | CN1CCC[C@@H]1c1cc2cnc(NC(=O)c3ccc(CCCN4CCC(c5cccc6c5CN(C5CCC(=O)NC5=O)C6=O)CC4)cc3)cc2[nH]1 (stereo partly drawn) [Example 198, 4-(3-(4-(2-(2,6-dioxopiperidin-3-yl)-1-oxoisoindolin-4-yl)piperidin-1-yl)propyl)-N-(2-((R)-1-methylpyrrolidin-2-yl)-1H-pyrrolo[3,2-c]pyridin-6-yl)benzamide] | C (Category C: 25% ≤ C < 50% degradation)
A (Category A: A ≥ 75% degradation) | A (Category A: A ≥ 75% degradation) | CN1CCC[C@@H]1c1cc2cnc(NC(=O)c3ccc(OC4CC5(CCN(c6cccc7c6CN(C6CCC(=O)NC6=O)C7=O)CC5)C4)cc3F)cc2[nH]1 (stereo partly drawn) [Example 200, 4-((7-(2-(2,6-dioxopiperidin-3-yl)-1-oxoisoindolin-4-yl)-7-azaspiro[3.5]nonan-2-yl)oxy)-2-fluoro-N-(2-((R)-1-methylpyrrolidin-2-yl)-1H-pyrrolo[3,2-c]pyridin-6-yl)benzamide] | B (Category B: 50% ≤ B < 75% degradation)
A (Category A: A ≥ 75% degradation) | A (Category A: A ≥ 75% degradation) | CN1CCC[C@@H]1c1cc2cnc(NC(=O)c3ccc(OCC4CC5(CCN(c6cccc7c6CN(C6CCC(=O)NC6=O)C7=O)CC5)C4)cc3F)cc2[nH]1 (stereo partly drawn) [Example 201, 4-((7-(2-(2,6-dioxopiperidin-3-yl)-1-oxoisoindolin-4-yl)-7-azaspiro[3.5]nonan-2-yl)methoxy)-2-fluoro-N-(2-((R)-1-methylpyrrolidin-2-yl)-1H-pyrrolo[3,2-c]pyridin-6-yl)benzamide] | B (Category B: 50% ≤ B < 75% degradation)
A (Category A: A ≥ 75% degradation) | A (Category A: A ≥ 75% degradation) | CN1CCC[C@@H]1c1cc2cnc(NC(=O)c3ccc(OCCC4CCN(c5cccc6c5CN(C5CCC(=O)NC5=O)C6=O)CC4)cc3Cl)cc2[nH]1 (stereo partly drawn) [Example 205, 2-chloro-4-(2-(1-(2-(2,6-dioxopiperidin-3-yl)-1-oxoisoindolin-4-yl)piperidin-4-yl)ethoxy)-N-(2-((R)-1-methylpyrrolidin-2-yl)-1H-pyrrolo[3,2-c]pyridin-6-yl)benzamide] | B (Category B: 50% ≤ B < 75% degradation)
A (Category A: A ≥ 75% degradation) | A (Category A: A ≥ 75% degradation) | Cc1cc(CCOc2ccc(C(=O)Nc3cc4[nH]c([C@H]5CCCN5C)cc4cn3)c(F)c2)ccc1-c1cccc2c1CN(C1CCC(=O)NC1=O)C2=O (stereo partly drawn) [Example 208, 4-(4-(2-(2,6-dioxopiperidin-3-yl)-1-oxoisoindolin-4-yl)-3-methylphenethoxy)-2-fluoro-N-(2-((R)-1-methylpyrrolidin-2-yl)-1H-pyrrolo[3,2-c]pyridin-6-yl)benzamide] | A (Category A: A ≥ 75% degradation)
A (Category A: A ≥ 75% degradation) | A (Category A: A ≥ 75% degradation) | CN1CCC[C@@H]1c1cc2cnc(NC(=O)c3ccc(OCC4CCN(c5cccc6c5CN(C5CCC(=O)NC5=O)C6=O)CC4)cc3F)cc2[nH]1 (stereo partly drawn) [Example 214, 4-((1-(2-(2,6-dioxopiperidin-3-yl)-1-oxoisoindolin-4-yl)piperidin-4-yl)methoxy)-2-fluoro-N-(2-((R)-1-methylpyrrolidin-2-yl)-1H-pyrrolo[3,2-c]pyridin-6-yl)benzamide] | A (Category A: A ≥ 75% degradation)
A (Category A: A ≥ 75% degradation) | A (Category A: A ≥ 75% degradation) | CN1CCC[C@@H]1c1cc2cnc(NC(=O)c3ccc(OCCC4CCN(c5cccc6c5C(=O)N(C5CCC(=O)NC5=O)C6=O)CC4)cc3F)cc2[nH]1 (stereo partly drawn) [Example 217, 4-(2-(1-(2-(2,6-dioxopiperidin-3-yl)-1,3-dioxoisoindolin-4-yl)piperidin-4-yl)ethoxy)-2-fluoro-N-(2-((R)-1-methylpyrrolidin-2-yl)-1H-pyrrolo[3,2-c]pyridin-6-yl)benzamide] | C (Category C: 25% ≤ C < 50% degradation)

SMILES | MLLT1% Degradation @ 0.1 μM | MLLT1% Degradation @ 1 μM | MLLT1% Degradation @ 0.01 μM
CN1CCC[C@@H]1c1cc2cnc(NC(=O)c3cccc(N4CCN(CC5CCN(c6ccc7c(c6)CN(C6CCC(=O)NC6=O)C7=O)CC5)CC4)c3)cc2[nH]1 (stereo partly drawn) [Example 192, 3-(4-((1-(2-(2,6-dioxopiperidin-3-yl)-1-oxoisoindolin-5-yl)piperidin-4-yl)methyl)piperazin-1-yl)-N-(2-((R)-1-methylpyrrolidin-2-yl)-1H-pyrrolo[3,2-c]pyridin-6-yl)benzamide] | B (Category B: 50% ≤ B < 75% degradation) | C (Category C: 25% ≤ C < 50% degradation) | B (Category B: 50% ≤ B < 75% degradation)
Cc1cc(OC2CCN(c3ccc(C(=O)Nc4cc5[nH]c([C@H]6CCCN6C)cc5cn4)cn3)CC2)ccc1-c1cccc2c1CN(C1CCC(=O)NC1=O)C2=O (stereo partly drawn) [Example 196, 6-(4-(4-(2-(2,6-dioxopiperidin-3-yl)-1-oxoisoindolin-4-yl)-3-methylphenoxy)piperidin-1-yl)-N-(2-((R)-1-methylpyrrolidin-2-yl)-1H-pyrrolo[3,2-c]pyridin-6-yl)nicotinamide] | B (Category B: 50% ≤ B < 75% degradation) | A (Category A: A ≥ 75% degradation) | D (Category D: D < 25% degradation)
CN1CCC[C@@H]1c1cc2cnc(NC(=O)c3ccc(N4CCC5(CC4)CCN(c4cccc6c4CN(C4CCC(=O)NC4=O)C6=O)CC5)cc3F)cc2[nH]1 (stereo partly drawn) [Example 202, 4-(9-(2-(2,6-dioxopiperidin-3-yl)-1-oxoisoindolin-4-yl)-3,9-diazaspiro[5.5]undecan-3-yl)-2-fluoro-N-(2-((R)-1-methylpyrrolidin-2-yl)-1H-pyrrolo[3,2-c]pyridin-6-yl)benzamide] | C (Category C: 25% ≤ C < 50% degradation) | C (Category C: 25% ≤ C < 50% degradation) | D (Category D: D < 25% degradation)
Cc1cc(OC2CCN(c3ccc(C(=O)Nc4cc5[nH]c([C@H]6CCCN6C)cc5cn4)c(F)c3)CC2)ccc1-c1cccc2c1CN(C1CCC(=O)NC1=O)C2=O (stereo partly drawn) [Example 203, 4-(4-(4-(2-(2,6-dioxopiperidin-3-yl)-1-oxoisoindolin-4-yl)-3-methylphenoxy)piperidin-1-yl)-2-fluoro-N-(2-((R)-1-methylpyrrolidin-2-yl)-1H-pyrrolo[3,2-c]pyridin-6-yl)benzamide] | C (Category C: 25% ≤ C < 50% degradation) | B (Category B: 50% ≤ B < 75% degradation) | C (Category C: 25% ≤ C < 50% degradation)
Cc1cc(OCCC2CCN(c3cccc4c3CN(C3CCC(=O)NC3=O)C4=O)CC2)ccc1C(=O)Nc1cc2[nH]c([C@H]3CCCN3C)cc2cn1 (stereo partly drawn) [Example 204, 4-(2-(1-(2-(2,6-dioxopiperidin-3-yl)-1-oxoisoindolin-4-yl)piperidin-4-yl)ethoxy)-2-methyl-N-(2-((R)-1-methylpyrrolidin-2-yl)-1H-pyrrolo[3,2-c]pyridin-6-yl)benzamide] | B (Category B: 50% ≤ B < 75% degradation) | B (Category B: 50% ≤ B < 75% degradation) | C (Category C: 25% ≤ C < 50% degradation)
CN1CCC[C@@H]1c1cc2cnc(NC(=O)c3ccc(OCCC4CCN(c5ccc(C(=O)N[C@H]6CCC(=O)NC6=O)c(F)c5)CC4)cc3F)cc2[nH]1 [Example 215, N—((S)-2,6-dioxopiperidin-3-yl)-2-fluoro-4-(4-(2-(3-fluoro-4-((2-((R)-1-methylpyrrolidin-2-yl)-1H-pyrrolo[3,2-c]pyridin-6-yl)carbamoyl)phenoxy)ethyl)piperidin-1-yl)benzamide] | C (Category C: 25% ≤ C < 50% degradation) | C (Category C: 25% ≤ C < 50% degradation) | D (Category D: D < 25% degradation)
CN1CCC[C@@H]1c1cc2cnc(NC(=O)c3ccc(N4CCC(c5ccc(-c6cccc7c6CN(C6CCC(=O)NC6=O)C7=O)cc5)CC4)cc3F)cc2[nH]1 (stereo partly drawn) [Example 218, 4-(4-(4-(2-(2,6-dioxopiperidin-3-yl)-1-oxoisoindolin-4-yl)phenyl)piperidin-1-yl)-2-fluoro-N-(2-((R)-1-methylpyrrolidin-2-yl)-1H-pyrrolo[3,2-c]pyridin-6-yl)benzamide] | A (Category A: A ≥ 75% degradation) | B (Category B: 50% ≤ B < 75% degradation) | C (Category C: 25% ≤ C < 50% degradation)
